Columns and labels:
[1] = target: T1, Protein kinase C beta type (Homo sapiens, UniProt P05771); assay: Inhibition of human Protein kinase C beta 1
[2] = target: Protein kinase C delta type (Homo sapiens, UniProt Q05655); assay: Inhibition of human Protein kinase C delta
[3] = target: T2, Protein kinase C epsilon type (Homo sapiens, UniProt Q02156); assay: Inhibition of human Protein kinase C epsilon
T2 sequence (Q02156 whole entry): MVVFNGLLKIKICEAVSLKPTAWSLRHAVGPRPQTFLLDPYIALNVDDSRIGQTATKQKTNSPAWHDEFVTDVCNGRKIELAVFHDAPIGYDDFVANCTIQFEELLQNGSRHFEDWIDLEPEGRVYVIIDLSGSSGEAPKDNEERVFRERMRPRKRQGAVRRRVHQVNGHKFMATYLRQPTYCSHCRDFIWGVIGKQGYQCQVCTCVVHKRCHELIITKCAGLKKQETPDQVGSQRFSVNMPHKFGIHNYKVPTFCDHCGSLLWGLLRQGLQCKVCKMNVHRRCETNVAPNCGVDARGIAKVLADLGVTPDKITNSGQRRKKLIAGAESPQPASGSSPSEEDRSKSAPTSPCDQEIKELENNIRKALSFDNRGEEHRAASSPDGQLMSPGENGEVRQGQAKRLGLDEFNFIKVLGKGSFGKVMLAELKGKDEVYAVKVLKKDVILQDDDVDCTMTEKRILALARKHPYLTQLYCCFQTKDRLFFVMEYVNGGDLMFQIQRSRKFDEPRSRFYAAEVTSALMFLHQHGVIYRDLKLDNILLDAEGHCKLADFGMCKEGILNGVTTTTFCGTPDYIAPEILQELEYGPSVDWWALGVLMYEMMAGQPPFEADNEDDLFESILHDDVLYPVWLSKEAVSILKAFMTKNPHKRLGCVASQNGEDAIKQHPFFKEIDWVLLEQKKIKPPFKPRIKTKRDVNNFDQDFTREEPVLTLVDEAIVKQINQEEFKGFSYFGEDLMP

[4] = target: T1, Protein kinase C beta type; assay: Inhibition of human Protein kinase C beta 2
[5] = target: Protein kinase C gamma type (Homo sapiens, UniProt P05129); assay: Inhibition of human Protein kinase C gamma
[6] = target: Protein kinase C alpha type (Homo sapiens, UniProt P17252); assay: Inhibition of human Protein kinase C alpha
[7] = target: Protein kinase C eta type (Homo sapiens, UniProt P24723); assay: Inhibition of human Protein Kinase C eta
[8] = target: T3, Protein kinase C zeta type (Homo sapiens, UniProt Q05513); assay: Inhibition of Protein kinase C zeta
T3 sequence (Q05513 whole entry): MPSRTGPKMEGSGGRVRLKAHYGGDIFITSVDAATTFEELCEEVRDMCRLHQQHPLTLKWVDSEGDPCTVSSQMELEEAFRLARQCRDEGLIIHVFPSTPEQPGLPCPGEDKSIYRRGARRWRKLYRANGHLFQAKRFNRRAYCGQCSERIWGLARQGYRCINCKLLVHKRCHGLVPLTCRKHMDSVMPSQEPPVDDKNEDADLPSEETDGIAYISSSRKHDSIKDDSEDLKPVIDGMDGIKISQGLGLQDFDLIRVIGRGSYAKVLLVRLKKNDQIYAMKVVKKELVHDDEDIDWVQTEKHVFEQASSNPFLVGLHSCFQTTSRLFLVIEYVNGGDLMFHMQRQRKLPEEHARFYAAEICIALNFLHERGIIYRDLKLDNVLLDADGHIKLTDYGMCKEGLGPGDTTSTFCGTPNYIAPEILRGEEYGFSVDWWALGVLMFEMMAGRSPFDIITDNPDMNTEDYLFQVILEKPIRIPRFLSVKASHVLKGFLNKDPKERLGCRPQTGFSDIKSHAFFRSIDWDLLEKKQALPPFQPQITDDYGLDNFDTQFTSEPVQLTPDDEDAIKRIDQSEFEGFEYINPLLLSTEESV

Protein kinase C delta type, sequence (Q05655 whole entry): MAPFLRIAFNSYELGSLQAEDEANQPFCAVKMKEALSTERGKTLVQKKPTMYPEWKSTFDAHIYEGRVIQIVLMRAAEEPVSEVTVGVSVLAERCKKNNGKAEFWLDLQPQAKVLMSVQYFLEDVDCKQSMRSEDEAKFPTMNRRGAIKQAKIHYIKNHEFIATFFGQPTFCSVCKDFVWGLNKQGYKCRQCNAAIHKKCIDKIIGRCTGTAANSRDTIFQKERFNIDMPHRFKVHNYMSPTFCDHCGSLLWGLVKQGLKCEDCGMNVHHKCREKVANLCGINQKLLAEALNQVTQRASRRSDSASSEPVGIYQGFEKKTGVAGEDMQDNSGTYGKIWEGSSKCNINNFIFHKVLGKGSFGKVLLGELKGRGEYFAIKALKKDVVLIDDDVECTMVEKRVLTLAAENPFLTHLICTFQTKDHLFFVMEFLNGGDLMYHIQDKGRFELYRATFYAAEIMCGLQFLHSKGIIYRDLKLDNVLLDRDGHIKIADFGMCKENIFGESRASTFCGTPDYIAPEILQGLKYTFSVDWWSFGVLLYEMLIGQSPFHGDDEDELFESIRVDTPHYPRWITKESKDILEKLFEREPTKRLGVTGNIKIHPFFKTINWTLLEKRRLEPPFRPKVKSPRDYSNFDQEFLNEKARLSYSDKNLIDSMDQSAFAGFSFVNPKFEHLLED
T1 sequence (P05771 whole entry): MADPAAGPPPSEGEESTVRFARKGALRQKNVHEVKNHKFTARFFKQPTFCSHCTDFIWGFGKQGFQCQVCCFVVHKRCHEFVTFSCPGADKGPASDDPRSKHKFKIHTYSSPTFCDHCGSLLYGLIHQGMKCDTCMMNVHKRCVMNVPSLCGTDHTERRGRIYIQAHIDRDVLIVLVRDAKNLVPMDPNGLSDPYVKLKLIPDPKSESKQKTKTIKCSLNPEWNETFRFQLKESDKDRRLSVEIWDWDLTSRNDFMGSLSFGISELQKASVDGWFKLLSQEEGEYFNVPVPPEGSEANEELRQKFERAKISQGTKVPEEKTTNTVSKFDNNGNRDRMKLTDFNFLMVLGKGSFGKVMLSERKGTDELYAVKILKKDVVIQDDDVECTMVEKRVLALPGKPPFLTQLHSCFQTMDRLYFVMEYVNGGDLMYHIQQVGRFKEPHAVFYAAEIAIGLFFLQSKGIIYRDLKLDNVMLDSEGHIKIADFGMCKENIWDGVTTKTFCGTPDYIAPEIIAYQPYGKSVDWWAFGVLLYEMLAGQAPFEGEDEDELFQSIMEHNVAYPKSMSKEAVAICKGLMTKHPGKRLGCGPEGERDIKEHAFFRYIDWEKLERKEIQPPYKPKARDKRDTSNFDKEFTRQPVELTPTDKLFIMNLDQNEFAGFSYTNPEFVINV
Protein kinase C eta type, sequence (P24723 whole entry): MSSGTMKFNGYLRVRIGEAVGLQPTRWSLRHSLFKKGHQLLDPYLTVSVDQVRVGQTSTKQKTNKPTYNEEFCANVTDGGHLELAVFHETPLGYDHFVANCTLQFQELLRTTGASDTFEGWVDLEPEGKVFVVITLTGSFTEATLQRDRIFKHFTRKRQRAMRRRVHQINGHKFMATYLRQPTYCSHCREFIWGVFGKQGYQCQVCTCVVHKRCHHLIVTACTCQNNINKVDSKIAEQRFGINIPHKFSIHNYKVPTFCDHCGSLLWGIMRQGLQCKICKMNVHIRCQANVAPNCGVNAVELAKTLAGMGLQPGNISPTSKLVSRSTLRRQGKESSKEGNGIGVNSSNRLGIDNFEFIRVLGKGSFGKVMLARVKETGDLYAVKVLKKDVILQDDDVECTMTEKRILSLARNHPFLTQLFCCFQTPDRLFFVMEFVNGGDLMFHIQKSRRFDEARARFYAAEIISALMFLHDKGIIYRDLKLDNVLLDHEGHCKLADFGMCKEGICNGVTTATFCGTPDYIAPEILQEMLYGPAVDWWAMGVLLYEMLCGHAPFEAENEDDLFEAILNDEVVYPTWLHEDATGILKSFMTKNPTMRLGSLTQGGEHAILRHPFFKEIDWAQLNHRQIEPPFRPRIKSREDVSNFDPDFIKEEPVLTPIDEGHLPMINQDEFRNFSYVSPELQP

SMILES	IC50 [1] [nM]	IC50 [2] [nM]	IC50 [3] [nM]	IC50 [4] [nM]	IC50 [5] [nM]	IC50 [6] [nM]	IC50 [7] [nM]	IC50 [8] [nM]
O=C(N[C@@H]1CNCCC[C@H]1OC(=O)c1cc(O)c(C(=O)c2c(O)cccc2C(=O)O)c(O)c1)c1ccc(O)cc1 (racemic) [BALANOL]	–	30	–	40	–	70	–	–
N[C@@H]1C[C@H](NC(=O)c2ccc(O)cc2)[C@H](OC(=O)c2cc(O)c(C(=O)c3c(O)cccc3C(=O)O)c(O)c2)C1	4	5	10	2	5	20	2	1200
O=C(N[C@H]1C[C@@H](O)C[C@H]1OC(=O)c1cc(O)c(C(=O)c2c(O)cccc2C(=O)O)c(O)c1)c1ccc(O)cc1.O=C(N[C@H]1C[C@H](O)C[C@H]1OC(=O)c1cc(O)c(C(=O)c2c(O)cccc2C(=O)O)c(O)c1)c1ccc(O)cc1 (single isomer, unassigned)	20	5	100	10	20	40	3	–
O=C(N[C@H]1C[C@H](O)C[C@H]1OC(=O)c1cc(O)c(C(=O)c2c(O)cccc2C(=O)O)c(O)c1)c1ccc(O)cc1	20	6	150	20	30	50	4	–

Next, values leading:

IC50 [1] [nM]	IC50 [2] [nM]	IC50 [3] [nM]	IC50 [4] [nM]	IC50 [5] [nM]	IC50 [6] [nM]	IC50 [7] [nM]	IC50 [8] [nM]	SMILES
4	4	160	3	5	10	2	–	O=C(N[C@H]1C[C@H](CO)C[C@H]1OC(=O)c1cc(O)c(C(=O)c2c(O)cccc2C(=O)O)c(O)c1)c1ccc(O)cc1
4	6	30	4	5	20	3	2800	NC[C@H]1C[C@H](NC(=O)c2ccc(O)cc2)[C@H](OC(=O)c2cc(O)c(C(=O)c3c(O)cccc3C(=O)O)c(O)c2)C1
5	20	30	5	10	20	3	3100	NC[C@@H]1C[C@H](NC(=O)c2ccc(O)cc2)[C@H](OC(=O)c2cc(O)c(C(=O)c3c(O)cccc3C(=O)O)c(O)c2)C1
60	20	260	20	45	80	20	–	O=C(N[C@H]1C[C@@H](CO)C[C@H]1OC(=O)c1cc(O)c(C(=O)c2c(O)cccc2C(=O)O)c(O)c1)c1ccc(O)cc1

Reference: ChEMBL document CHEMBL1151070 (Bioorg Med Chem Lett, 1995)
